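Interpolation was linear, between the two tested concentrations surrounding the appropriate level; five concentrations were tested over 48 hours in 96-well plates. At the TGI there is no net growth.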
What was measured:
Assay in all cases: DTP human tumour cell line panel, 48 h
SF-539 CNS = tested on: SF-539 CNS
DMS 114 small cell lung = tested on: DMS 114 small cell lung
K-562 leukemia = tested on: K-562 leukemia
U251 CNS = tested on: U251 CNS
A549 NSCLC = tested on: A549 NSCLC
HOP-18 NSCLC = tested on: HOP-18 NSCLC
HCT-116 colon = tested on: HCT-116 colon
SR leukemia = tested on: SR leukemia
SNB-78 CNS = tested on: SNB-78 CNS
HL-60(TB) leukemia = tested on: HL-60(TB) leukemia
SK-MEL-28 melanoma = tested on: SK-MEL-28 melanoma
OVCAR-8 ovarian = tested on: OVCAR-8 ovarian
SF-268 CNS = tested on: SF-268 CNS
KM12 colon = tested on: KM12 colon
NCI-H23 lung = tested on: NCI-H23 lung
HCT-15 colon = tested on: HCT-15 colon
RPMI-8226 leukemia = tested on: RPMI-8226 leukemia
SW-620 colon = tested on: SW-620 colon
SK-MEL-2 melanoma = tested on: SK-MEL-2 melanoma
M14 melanoma = tested on: M14 melanoma
SNB-75 CNS = tested on: SNB-75 CNS
HCC-2998 colon = tested on: HCC-2998 colon
786-0 renal = tested on: 786-0 renal
EKVX NSCLC = tested on: EKVX NSCLC
RXF 393 renal = tested on: RXF 393 renal
IGROV1 ovarian = tested on: IGROV1 ovarian
M19-MEL melanoma = tested on: M19-MEL melanoma
OVCAR-3 ovarian = tested on: OVCAR-3 ovarian
ACHN renal = tested on: ACHN renal
SN12C renal = tested on: SN12C renal
HOP-62 NSCLC = tested on: HOP-62 NSCLC
SK-OV-3 ovarian = tested on: SK-OV-3 ovarian
HOP-92 NSCLC = tested on: HOP-92 NSCLC
DLD-1 colon = tested on: DLD-1 colon
DMS 273 small cell lung = tested on: DMS 273 small cell lung
LOX IMVI melanoma = tested on: LOX IMVI melanoma
COLO 205 colon = tested on: COLO 205 colon
NCI-H226 lung = tested on: NCI-H226 lung
MOLT-4 leukemia = tested on: MOLT-4 leukemia
KM20L2 colon = tested on: KM20L2 colon
TK-10 renal = tested on: TK-10 renal
UACC-62 melanoma = tested on: UACC-62 melanoma
UACC-257 melanoma = tested on: UACC-257 melanoma
NCI-H460 lung = tested on: NCI-H460 lung
LXFL 529 NSCLC = tested on: LXFL 529 NSCLC
UO-31 renal = tested on: UO-31 renal
SF-295 CNS = tested on: SF-295 CNS
A498 renal = tested on: A498 renal
HT29 colon = tested on: HT29 colon
OVCAR-4 ovarian = tested on: OVCAR-4 ovarian
XF 498 CNS = tested on: XF 498 CNS
SNB-19 CNS = tested on: SNB-19 CNS
NCI-H522 lung = tested on: NCI-H522 lung
MALME-3M melanoma = tested on: MALME-3M melanoma
CCRF-CEM leukemia = tested on: CCRF-CEM leukemia
OVCAR-5 ovarian = tested on: OVCAR-5 ovarian
SK-MEL-5 melanoma = tested on: SK-MEL-5 melanoma
CAKI-1 renal = tested on: CAKI-1 renal

CCOC(=O)C(Cc1ccc([N+](=O)[O-])cc1)NC(=O)CC1c2ccccc2-c2ccccc21 (configuration not stated)
TGI (SF-539 CNS): 77.4 µM
TGI (DMS 114 small cell lung): > 100 µM
TGI (K-562 leukemia): > 100 µM
TGI (U251 CNS): > 100 µM
TGI (A549 NSCLC): > 100 µM
TGI (HOP-18 NSCLC): > 100 µM
TGI (HCT-116 colon): > 100 µM
TGI (SR leukemia): > 100 µM
TGI (SNB-78 CNS): 65.3 µM
TGI (HL-60(TB) leukemia): > 100 µM
TGI (SK-MEL-28 melanoma): > 100 µM
TGI (OVCAR-8 ovarian): > 100 µM
TGI (SF-268 CNS): > 100 µM
TGI (KM12 colon): > 100 µM
TGI (NCI-H23 lung): > 100 µM
TGI (HCT-15 colon): > 100 µM
TGI (RPMI-8226 leukemia): > 100 µM
TGI (SW-620 colon): > 100 µM
TGI (SK-MEL-2 melanoma): > 100 µM
TGI (M14 melanoma): 57.9 µM
TGI (SNB-75 CNS): 68.8 µM
TGI (HCC-2998 colon): > 100 µM
TGI (786-0 renal): > 100 µM
TGI (EKVX NSCLC): > 100 µM
TGI (RXF 393 renal): 41.6 µM
TGI (IGROV1 ovarian): > 100 µM
TGI (M19-MEL melanoma): 38.9 µM
TGI (OVCAR-3 ovarian): > 100 µM
TGI (ACHN renal): 45.1 µM
TGI (SN12C renal): > 100 µM
TGI (HOP-62 NSCLC): > 100 µM
TGI (SK-OV-3 ovarian): > 100 µM
TGI (HOP-92 NSCLC): 56.5 µM
TGI (DLD-1 colon): > 100 µM
TGI (DMS 273 small cell lung): > 100 µM
TGI (LOX IMVI melanoma): > 100 µM
TGI (COLO 205 colon): > 100 µM
TGI (NCI-H226 lung): > 100 µM
TGI (MOLT-4 leukemia): > 100 µM
TGI (KM20L2 colon): > 100 µM
TGI (TK-10 renal): > 100 µM
TGI (UACC-62 melanoma): > 100 µM
TGI (UACC-257 melanoma): 91.5 µM
TGI (NCI-H460 lung): > 100 µM
TGI (LXFL 529 NSCLC): > 100 µM
TGI (UO-31 renal): > 100 µM
TGI (SF-295 CNS): > 100 µM
TGI (A498 renal): > 100 µM
TGI (HT29 colon): > 100 µM
TGI (OVCAR-4 ovarian): > 100 µM
TGI (XF 498 CNS): 53.6 µM
TGI (SNB-19 CNS): > 100 µM
TGI (NCI-H522 lung): > 100 µM
TGI (MALME-3M melanoma): 42.3 µM
TGI (CCRF-CEM leukemia): > 100 µM

CC#CC(OCC)(OCC)OCC
TGI (SF-539 CNS): > 100 µM
TGI (DMS 114 small cell lung): 74.3 µM
TGI (K-562 leukemia): > 100 µM
TGI (U251 CNS): > 100 µM
TGI (A549 NSCLC): > 100 µM
TGI (HOP-18 NSCLC): > 100 µM
TGI (HCT-116 colon): > 100 µM
TGI (SR leukemia): > 100 µM
TGI (SNB-78 CNS): > 100 µM
TGI (HL-60(TB) leukemia): > 100 µM
TGI (SK-MEL-28 melanoma): > 100 µM
TGI (OVCAR-8 ovarian): > 100 µM
TGI (SF-268 CNS): > 100 µM
TGI (KM12 colon): > 100 µM
TGI (NCI-H23 lung): > 100 µM
TGI (HCT-15 colon): > 100 µM
TGI (RPMI-8226 leukemia): > 100 µM
TGI (SK-MEL-2 melanoma): > 100 µM
TGI (M14 melanoma): > 100 µM
TGI (SNB-75 CNS): > 100 µM
TGI (HCC-2998 colon): > 100 µM
TGI (OVCAR-5 ovarian): > 100 µM
TGI (786-0 renal): > 100 µM
TGI (EKVX NSCLC): > 100 µM
TGI (RXF 393 renal): > 100 µM
TGI (IGROV1 ovarian): > 100 µM
TGI (M19-MEL melanoma): > 100 µM
TGI (OVCAR-3 ovarian): > 100 µM
TGI (ACHN renal): > 100 µM
TGI (SN12C renal): > 100 µM
TGI (HOP-62 NSCLC): > 100 µM
TGI (SK-OV-3 ovarian): > 100 µM
TGI (HOP-92 NSCLC): > 100 µM
TGI (DLD-1 colon): > 100 µM
TGI (DMS 273 small cell lung): 49.1 µM
TGI (LOX IMVI melanoma): 39.9 µM
TGI (COLO 205 colon): > 100 µM
TGI (NCI-H226 lung): > 100 µM
TGI (SK-MEL-5 melanoma): > 100 µM
TGI (MOLT-4 leukemia): > 100 µM
TGI (KM20L2 colon): > 100 µM
TGI (TK-10 renal): > 100 µM
TGI (UACC-62 melanoma): > 100 µM
TGI (UACC-257 melanoma): > 100 µM
TGI (NCI-H460 lung): > 100 µM
TGI (LXFL 529 NSCLC): > 100 µM
TGI (UO-31 renal): > 100 µM
TGI (SF-295 CNS): > 100 µM
TGI (A498 renal): > 100 µM
TGI (HT29 colon): > 100 µM
TGI (OVCAR-4 ovarian): > 100 µM
TGI (XF 498 CNS): > 100 µM
TGI (SNB-19 CNS): > 100 µM
TGI (NCI-H522 lung): > 100 µM
TGI (CAKI-1 renal): > 100 µM
TGI (MALME-3M melanoma): > 100 µM
TGI (CCRF-CEM leukemia): > 100 µM

— PubChem BioAssay (NCI)
